{
  "source": "patent US11247970B2",
  "about": "“Selective inhibition of gluconeogenic activity” (Dana-Farber Cancer Institute, Inc., priority 2017, dated 2022)",
  "key": {"HNF4α": {"system": "HNF4α", "assay": "Transcriptional luciferase reporter assay (Pck1 promoter fragment with HNF4α site) in U-2 OS cells", "format": "cell-based", "settings": "24 h", "experimental": "U-2 OS cells were transfected with a fixed amount of DNA. After 6 h medium was changed and compound treatment started. The following morning medium was changed again and fresh compound was added for additional 3 h after which cells were collected (24 h post transfection) with 1× Passive Lysis Buffer (Promega). Firefly luciferase reporter was determined by addition of Luciferase Assay Substrate (Dual-Luciferase Reporter Assay System, Promega) and quantification of luminescence on a FLUOstar Omega plate reader (BMG Labtech). CMV-driven Renilla luciferase vector was cotransfected as an internal control. Data are presented as firefly luciferase reporter values normalized to Renilla values and are representative of at least two independent experiments.\nThe GCN5 acetyl transferase complex decreases PGC-1α gluconeogenic transcriptional activation by interacting with PGC-1α. This is achieved at least in part by reducing the ability of PGC-1α to co-activate the nuclear hormone receptor HNF4α. Co-activation of HNF4α by PGC-1α is required to promote transcription of the gluconeogenic genes Pck1 and G6pc. To test whether SR-18292 reduces the transcriptional activity of HNF4α that is induced by PGC-1α, a luciferase reporter construct driven by a fragment of the Pck1 promoter containing an HNF4α binding site was used. […]"}, "[1]": {"system": "Pck1 gene expression in liver", "assay": "qPCR of gluconeogenic genes in liver of treated mice", "format": "in vivo", "settings": "livers from fasted treated mice", "experimental": "All mice were purchased from Jackson laboratories and housed under a 12 h light/12 h dark cycle at 22° C. Before handling, mice were allowed to acclimate for at least 1 week in our animal facility. For in vivo studies with DIO mice, males 6-8 weeks old were fed HFD for the indicated time. For drug administration, SR-18292 was re-suspended in a 10% DMSO/10% Tween80/80% PBS solution at a final concentration of 6-12 mg/ml. Metformin was re-suspended in the same solution at a 20 mg/ml concentration. SR-18292 was injected via I.P. for 3 days between 4-5 pm and food was removed on day 3 at 5 pm. […] Metformin was administered via oral gavage. […] Insulin tolerance test was performed following the same dosing protocol, but mice were fasted for 4 hours after the forth injection before performing the test. Insulin was injected via I.P. (0.5 U/Kg) and blood glucose was measured every 20 minutes. Glycemia was measured by tail bleed using a glucometer (OneTouch). […] Total RNA was extracted from cells or pulverized liver using TRIzol reagent (Ambion, Life Technologies), followed by cDNA preparation from 2 μg of total RNA with a High-Capacity cDNA Reverse Transcription Kit (Applied Biosystems). cDNA products were quantified by real-time PCR using Power SYBR Green PCR Master Mix (Applied Biosystems) on a CFX384 Real-Time PCR System (Bio-Rad). […]"}, "HFD fed mice": {"system": "HFD fed mice", "assay": "Insulin tolerance test (ITT)", "format": "in vivo", "settings": "HFD 3 weeks", "experimental": "All mice were purchased from Jackson laboratories and housed under a 12 h light/12 h dark cycle at 22° C. Before handling, mice were allowed to acclimate for at least 1 week in our animal facility. For in vivo studies with DIO mice, males 6-8 weeks old were fed HFD for the indicated time. For drug administration, SR-18292 was re-suspended in a 10% DMSO/10% Tween80/80% PBS solution at a final concentration of 6-12 mg/ml. Metformin was re-suspended in the same solution at a 20 mg/ml concentration. SR-18292 was injected via I.P. for 3 days between 4-5 pm and food was removed on day 3 at 5 pm. […] Metformin was administered via oral gavage. […] Insulin tolerance test was performed following the same dosing protocol, but mice were fasted for 4 hours after the forth injection before performing the test. Insulin was injected via I.P. (0.5 U/Kg) and blood glucose was measured every 20 minutes. Glycemia was measured by tail bleed using a glucometer (OneTouch). For all experiments, age- and body weight-matched animals were used. For protein, RNA extracts and biochemistry studies, livers were removed following each experiment and snap frozen in liquid nitrogen. For information on number of animals in each experiment please refer to FIGS. 4, 5 and S5 legends. All studies were performed according to protocols approved by Beth Israel Deaconess Medical Center's Animal Care and Use Committee."}, "[2]": {"assay": "Liver and serum lipids, metabolites and liver gene expression in treated HFD mice", "format": "in vivo", "experimental": "Total RNA was extracted from cells or pulverized liver using TRIzol reagent (Ambion, Life Technologies), followed by cDNA preparation from 2 μg of total RNA with a High-Capacity cDNA Reverse Transcription Kit (Applied Biosystems). cDNA products were quantified by real-time PCR using Power SYBR Green PCR Master Mix (Applied Biosystems) on a CFX384 Real-Time PCR System (Bio-Rad). To calculate IC50 from C-80 dose response, curves were fit to the hill equation in a similar manner used to calculate estimated AC50 from the high-throughput qPCR screen. However, unlike the curves from the qPCR high-throughput screen, values of relative repression were used rather than of delta-Ct.\nSerum samples were gathered from blood collected by cardiac puncture. Insulin was measured with Ultra Sensitive Mouse Insulin ELISA Kit (Crystal Chem, 90080). Kits used to measure alanine transaminase (EALT-100), aspartate transaminase (EASTR-100), lactate dehydrogenase (DLDH-100) were purchased from Bioassay Systems. Kits used to measure lactate (MAK 064), b-hydroxybutyrate (MAK 041), Triglycerides (TR0100) were purchased from Sigma. Kit used to measure cholesterol (C7510) was purchased from Pointe Scientific. Kit used to measure non-esterified fatty acids was purchased from Wako."}},
  "note": "Entries after “also recorded” stand apart in the source; their conditions may differ.",
  "data": [
    {"smiles": "Cc1ccc(CN(CC(O)COc2cccc3[nH]ccc23)C(C)(C)C)cc1", "note": "(stereo not shown) [SR-18292, 1-((1H-indol-4-yl)oxy)-3-(tert-butyl(4-methylbenzyl)amino)propan-2-ol]", "values": [
      {"measurement": "transcriptional activity of HNF4α induced by PGC-1α", "setting": "HNF4α", "value": "significantly reduced"},
      {"measurement": "gluconeogenic gene expression (Pck1) in liver", "setting": "[1]", "value": "inhibited"},
      {"measurement": "response to insulin", "setting": "HFD fed mice", "value": "enhanced"},
      {"measurement": "serum lactate and ketone bodies (β-hydroxybutyrate)", "setting": "[2]; HFD 4 weeks", "value": "not changed; also recorded: not altered"},
      {"measurement": "serum levels of TG, free fatty acids and cholesterol", "setting": "[2]; HFD 13 weeks", "value": "not significantly altered"},
      {"measurement": "transcriptional lipid metabolic profile in liver", "setting": "[2]; HFD 13 weeks", "value": "not significantly altered; also recorded: not changed"},
      {"measurement": "liver TG and cholesterol levels", "setting": "[2]; HFD 17 weeks, also after prolonged treatment", "value": "not changed"}
    ]}
  ]
}
